Common to all, as to type: cell-based, mouse
Test [1] deals with β-galactosidase in CMV-LacZ C2C12 myoblasts. Nature of the test: CMV-LacZ secondary screen in C2C12 myoblasts (β-Gal stabilizing assay). The note with it: for CMV-LACZ in Myoblasts, value relative to DMSO: SU9516 analogs, C2C12 CMV-LacZ, N=2; for CMV-LACZ in Myoblasts (β-galactosidase activity relative to DMSO): CMV-LacZ C2C12 myoblasts. In a few lines: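 First, C2C12 myoblasts were transfected with a linearized CMV-LACZ vector and clonal lines selected by FDG β-gal assay. Then cells were exposed to compounds at 0.5, 1, 5, 10, 20 and 40 μM in 96-well format, two replicates each, and β-gal measured.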

In test [2] the test system is α7 integrin (LacZ reporter in α7βgal+/− myoblasts). Nature of the test: Myoblast α7+/LacZ integrin FDG assay (Burkin assay in myoblasts, 96-well). The note with it: for Burkin Assay in Myoblasts, signal relative to DMSO: α7+/LacZ myoblasts; for Burkin Assay in Myoblasts, signal relative to DMSO / Burkin Assay in Myoblasts, value relative to DMSO: 96-well; for Burkin Assay in Myoblasts, value relative to DMSO: SU9516 analogs, N=3-6.

Test [3] deals with β-galactosidase in CMV-LacZ C2C12 myotubes. Nature of the test: CMV-LacZ secondary screen in C2C12 myotubes (β-Gal stabilizing assay). As to conditions: for CMV-LACZ in Myotubes, value relative to DMSO: SU9516 analogs, C2C12 CMV-LacZ, N=2; for CMV-LACZ in Myotubes, signal relative to DMSO: C2C12 CMV-LacZ myotubes, fold relative to DMSO. The method, boiled down: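 β-Gal level was the read-out, measured in a clonal C2C12 line expressing LacZ from a CMV promoter. Dose-response curves used six concentrations, 0.5 μM up to 40 μM, with duplicate points.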

Test [4] deals with α7 integrin (LacZ reporter in α7+/LacZ myotubes). The test can be described thus: Myotube α7 integrin FDG assay (Burkin assay in myotubes, 96-well). As to conditions: for Burkin Assay in Myotubes, value relative to DMSO: SU9516 analogs, 96-well, N=3-6.
Setting [5] is: Mus musculus, Myoblast, 48 h, read-out: Burkin Assay in Myoblasts, value relative to DMSO.

Molecules are shown by their SMILES.

Consider five compounds from patent publication US9980943B2, “Methods of treating muscular dystrophy” (BOARD OF REGENTS OF THE NEVADA SYSTEM OF HIGHER EDUCATION, …, priority 2013, dated 2018).

As to `O=C1Nc2ccccc2/C1=C/c1ccnc2ccccc12` [MLS001182278-01], the “CMV-LACZ in Myoblasts, value relative to DMSO” value in test [1] (0.5 uM) amounted to 0.7466; in test [1] (1 uM), 0.9491; in test [1] (5 uM), 0.9823; in test [1] (10 uM), 0.9778; in test [1] (20 uM) it was 1.0519; in test [1] (40 uM), 0.5959. In addition, the fold induction at 0.5 µM in test [2] (setting [5]) came to 1.21. Also, the fold induction at 1 µM in test [2] (setting [5]) was 1.07. Further, the fold induction at 5 µM in test [2] (setting [5]) stood at 1.06. The fold induction at 10 µM in test [2] (setting [5]) was 1.17. Moreover, the fold induction at 20 µM in test [2] (setting [5]) turned out to be 0.766. The fold induction at 40 µM in test [2] (setting [5]) is 0.842. For the same compound, the “CMV-LACZ in Myotubes, value relative to DMSO” value is listed as 0.9674 in test [3] (0.5 uM); 1.0126 in test [3] (1 uM); 1.0327 in test [3] (5 uM); 1.0297 in test [3] (10 uM); 1.0224 in test [3] (20 uM); 1.1212 in test [3] (40 uM). For the same compound, the “Burkin Assay in Myotubes, value relative to DMSO” value came to 1.1969 in test [4] (0.5 uM); 1.118 in test [4] (1 uM); 1.402 in test [4] (5 uM); 1.412 in test [4] (10 uM); 0.5653 in test [4] (20 uM); 0.6488 in test [4] (40 uM).

Turning to `O=C(Nc1cc(-c2nc3ccccc3s2)ccc1Cl)c1ccc2c(c1)OCO2` [MLS000560266-01], the “CMV-LACZ in Myoblasts (β-galactosidase activity relative to DMSO)” value in test [1] (0.5 uM) is 0.9030; in test [1] (1 uM), 0.8123; in test [1] (5 uM), 0.9405; in test [1] (10 uM) it was 0.9991; in test [1] (20 uM), 1.1095; in test [1] (40 uM) it was 1.0484. In addition, the “Burkin Assay in Myoblasts, signal relative to DMSO” value in test [2] (0.5 uM) is listed as 0.953; in test [2] (1 uM) it was 0.8556; in test [2] (5 uM), 1.026; in test [2] (10 uM), 1.13; in test [2] (20 uM), 0.8321; in test [2] (40 uM) it was 0.5589. The “CMV-LACZ in Myotubes, signal relative to DMSO” value in test [3] (0.5 uM) came out at 0.9724; in test [3] (1 uM), 1.0000; in test [3] (5 uM), 1.0253; in test [3] (10 uM), 1.0224; in test [3] (20 uM) it was 1.0520; in test [3] (40 uM), 0.9470. For the same compound, the “Burkin Assay in Myotubes, α7 integrin LacZ reporter signal relative to DMSO” value in test [4] (0.5 uM) was 0.9891; in test [4] (1 uM), 0.8824; in test [4] (5 uM), 1.037; in test [4] (10 uM) it was 1.185; in test [4] (20 uM), 0.6706; in test [4] (40 uM), 0.6059.

On to `Cc1ccccc1/C=C1\C(=O)Nc2ccc(F)cc21` [MLS001197838-01], for which the “CMV-LACZ in Myoblasts, value relative to DMSO” value in test [1] (0.5 uM) is reported as 0.7904; in test [1] (1 uM), 0.9954; in test [1] (5 uM), 1.0010; in test [1] (10 uM), 1.1118; in test [1] (20 uM), 1.1615; in test [1] (40 uM) it was 0.9437. Also, the “Burkin Assay in Myoblasts, value relative to DMSO” value in test [2] (0.5 uM) was found to be 1.256; in test [2] (1 uM), 1.198; in test [2] (5 uM), 1.053; in test [2] (10 uM), 1.048; in test [2] (20 uM), 0.8911; in test [2] (40 uM), 0.8648. The “CMV-LACZ in Myotubes, value relative to DMSO” value is listed as 1.0305 in test [3] (0.5 uM); 1.0038 in test [3] (1 uM); 0.9701 in test [3] (5 uM); 1.1637 in test [3] (10 uM); 0.8547 in test [3] (20 uM); 1.0063 in test [3] (40 uM). Besides, the “Burkin Assay in Myotubes, value relative to DMSO” value in test [4] (0.5 uM) was 1.009; in test [4] (1 uM), 0.981; in test [4] (5 uM), 1.004; in test [4] (10 uM) it was 1.091; in test [4] (20 uM) it was 0.8699; in test [4] (40 uM) it was 0.9981.

Regarding `O=C(NCc1ccccc1)c1csc(-c2cccnc2)n1` [MLS000860966-01], the “CMV-LACZ in Myoblasts (β-galactosidase activity relative to DMSO)” value in test [1] (0.5 uM) was 0.9370; in test [1] (1 uM), 1.0900; in test [1] (5 uM) it was 0.7918; in test [1] (10 uM) it was 0.8424; in test [1] (20 uM), 0.6232; in test [1] (40 uM), 0.7600. Also, the “Burkin Assay in Myoblasts, signal relative to DMSO” value in test [2] (0.5 uM) is 0.8092; in test [2] (1 uM) it was 0.9506; in test [2] (5 uM) it was 1.225; in test [2] (10 uM), 1.126; in test [2] (20 uM), 1.242; in test [2] (40 uM) it was 1.117. Besides, the “CMV-LACZ in Myotubes, signal relative to DMSO” value was 0.8229 in test [3] (0.5 uM); 1.0743 in test [3] (1 uM); 0.9632 in test [3] (5 uM); 0.8601 in test [3] (10 uM); 0.9190 in test [3] (20 uM); 0.7920 in test [3] (40 uM). Further, the “Burkin Assay in Myotubes, α7 integrin LacZ reporter signal relative to DMSO” value in test [4] (0.5 uM) came out at 0.9275; in test [4] (1 uM) it was 0.8211; in test [4] (5 uM), 1.1137; in test [4] (10 uM), 1.107; in test [4] (20 uM) it was 1.06; in test [4] (40 uM), 0.8927.

As to `Cc1ccc(N2C(=O)C3NN=C(C(=O)OCc4ccccc4)C3C2=O)cc1` (stereo not drawn) [MLS000588210-01], the “CMV-LACZ in Myoblasts (β-galactosidase activity relative to DMSO)” value in test [1] (0.5 uM) was 1.2908; in test [1] (1 uM), 0.9782; in test [1] (5 uM), 0.7808; in test [1] (10 uM), 0.9316; in test [1] (20 uM) it was 1.0307; in test [1] (40 uM), 0.9000. Moreover, the “Burkin Assay in Myoblasts, signal relative to DMSO” value amounted to 1.055 in test [2] (0.5 uM); 0.9707 in test [2] (1 uM); 0.9002 in test [2] (5 uM); 0.9816 in test [2] (10 uM); 1.136 in test [2] (20 uM); 0.9611 in test [2] (40 uM). Moreover, the “CMV-LACZ in Myotubes, signal relative to DMSO” value is 1.1263 in test [3] (0.5 uM); 1.0853 in test [3] (1 uM); 0.9182 in test [3] (5 uM); 1.0815 in test [3] (10 uM); 1.1322 in test [3] (20 uM); 1.1656 in test [3] (40 uM). Moreover, the “Burkin Assay in Myotubes, α7 integrin LacZ reporter signal relative to DMSO” value in test [4] (0.5 uM) is listed as 0.9425; in test [4] (1 uM) it was 0.9559; in test [4] (5 uM) it was 0.9466; in test [4] (10 uM) it was 0.9155; in test [4] (20 uM) it was 0.9763; in test [4] (40 uM), 0.9565.
